Drawing on patent publication US20240101546A1, “HETEROARYL-ACETYLENES, PHARMACEUTICAL COMPOSITIONS THEREOF, AND THEIR THERAPEUTIC APPLICATIONS” (Eubulus Biotherapeutics Inc., priority 2020, published 2024), this text covers EC50 for 35 compounds.

Read-outs that look alike come from different tables or passages of the source. Bounds are passed on as bounds.

The subject of this test is lung cancer cell line NCI-H82. The test can be described thus: Cell proliferation assay, NCI-H82 (CELL-TITER GLO). The class given is cell-based. Conditions: NCI-H82 cells, 72 h incubation, cell viability by CELL-TITER GLO, top concentration 1 μM, read-out: EC50, Inhibition of NCl-H82 Cell Proliferation. Summed up:
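NCI-H82 cells, 1,000 per well in RPMI1640, were treated after overnight plating with a 3-fold dilution series from 1 μM. Viability read by CellTiter-Glo luminescence after 72 h. EC50 derived from the curves.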

`C#Cc1nc(NC(=O)NCc2ccc(-c3cccc(C4(C#N)CC4)c3)cc2)cs1` [Compound A167, 1-((3′-(1-Cyanocyclopropyl)-[1,1′-biphenyl]-4-yl)methyl)-3-(2-ethynylthiazol-4-yl)urea]: the EC50 (Homo sapiens, NCI-H82, 72 h) is at most 200 nM. The same measure, in the same setting: next, `C#Cc1nc(NC(=O)NCc2ccc(-c3cccc(C4(O)CC4)c3)cc2)cs1` [Compound A168, 1-(2-Ethynylthiazol-4-yl)-3-((3′-(1-hydroxycyclopropyl)-[1,1′-biphenyl]-4-yl)methyl)urea]: at most 200 nM. Still for that read-out and setting: next, `C#Cc1nc(NC(=O)NCc2ccc(-c3cccc(C(=O)CC)c3)cc2)cs1` [Compound A169, 1-(2-Ethynylthiazol-4-yl)-3-((3′-propionyl-[1,1′-biphenyl]-4-yl)methyl)urea]: at most 200 nM. Same read-out and setting: next, `C#Cc1nc(NC(=O)NCc2ccc(-c3cccc(C4(O)CCC4)c3)cc2)cs1` [Compound A170, 1-(2-Ethynylthiazol-4-yl)-3-((3′-(1-hydroxycyclobutyl)-[1,1′-biphenyl]-4-yl)-methyl)urea]: at most 200 nM. Take `C#Cc1nc(NC(=O)NCc2ccc(-c3cccc4nc(N5CC(F)(F)C5)nc(O)c34)cc2)cs1` [Compound A171, 1-(4-(2-(3,3-Difluoroazetidin-1-yl)-4-hydroxyquinazolin-5-yl)benzyl)-3-(2-ethynylthiazol-4-yl)urea]: the EC50 (Homo sapiens, NCI-H82, 72 h) was at most 200 nM.

On to `C#Cc1nc(NC(=O)NCc2ccc(-c3cccc4nc(OCCO)nc(O)c34)cc2)cs1` [Compound A172, 1-(2-Ethynylthiazol-4-yl)-3-(4-(4-hydroxy-2-(2-hydroxyethoxy)quinazolin-5-yl)-benzyl)urea], for which the EC50 (Homo sapiens, NCI-H82, 72 h) was at most 200 nM. For the compound `C#Cc1nc(NC(=O)NCc2ccc(-c3cc(N4CCCC4)ccn3)cc2)cs1` [Compound A173, 1-(2-Ethynylthiazol-4-yl)-3-(4-(4-(pyrrolidin-1-yl)pyridin-2-yl)benzyl)urea], for the setting “Homo sapiens, NCI-H82, 72 h”, the EC50 is 200 to 1000 nM. As to `C#Cc1nc(NC(=O)NCc2ccc(-c3cncc(N4CCCC4)c3)cc2)cs1` [Compound A174, 1-(2-Ethynylthiazol-4-yl)-3-(4-(5-(pyrrolidin-1-yl)pyridin-3-yl)benzyl)urea], the EC50 (Homo sapiens, NCI-H82, 72 h) was at most 200 nM.

Consider `C#Cc1nc(NC(=O)NCc2ccc(-c3ccnc(N4CCCC4)c3)cc2)cs1` [Compound A175, 1-(2-Ethynylthiazol-4-yl)-3-(4-(2-(pyrrolidin-1-yl)pyridin-4-yl)benzyl)urea], for which, where the note is “Homo sapiens, NCI-H82, 72 h”, the EC50 was at most 200 nM.

On to `C#Cc1nc(NC(=O)NCc2ccc(-c3cccc(N4CCCC4)n3)cc2)cs1` [Compound A176, 1-(2-Ethynylthiazol-4-yl)-3-(4-(6-(pyrrolidin-1-yl)pyridin-2-yl)benzyl)urea], for which the EC50 (Homo sapiens, NCI-H82, 72 h) is at most 200 nM. Same read-out and setting: for `C#Cc1nc(NC(=O)NCc2ccc(-c3cccc4ncsc34)cc2C#N)cs1` [Compound A177, 1-(4-(Benzo[d]thiazol-7-yl)-2-cyanobenzyl)-3-(2-ethynylthiazol-4-yl)urea] the value was 200 to 1000 nM.

Regarding `C#Cc1nc(NC(=O)NCc2ccc(-c3cccc4ncsc34)cc2C#N)cs1` [Compound A178, 1-(4-(Benzo[d]thiazol-7-yl)-2-cyanobenzyl)-3-(2-ethynylthiazol-4-yl)urea], the EC50 is at most 200 nM. Regarding `C#Cc1nc(NC(=O)NCc2ccc(-c3cccc4ncsc34)cn2)cs1` [Compound A179, 1-((5-(Benzo[d]thiazol-7-yl)pyridin-2-yl)methyl)-3-(2-ethynylthiazol-4-yl)urea], the EC50 (Homo sapiens, NCI-H82, 72 h) was at most 200 nM. As for `C#Cc1nc(NC(=O)NCc2ccc(-c3cccc(C4(C#N)CC4)c3)nc2)cs1` [Compound A180, 1-((6-(3-(1-Cyanocyclopropyl)phenyl)pyridin-3-yl)methyl)-3-(2-ethynylthiazol-4-yl)urea], the EC50 (Homo sapiens, NCI-H82, 72 h) is at most 200 nM. For the compound `C#Cc1nc(NC(=O)N[C@@H](CO)c2ccc(-c3cccc(N4CCC(F)(F)C4)c3)cc2)cs1` [Compound A181, (R)-1-(1-(3′-(3,3-Difluoropyrrolidin-1-yl)-[1,1′-biphenyl]-4-yl)-2-hydroxyethyl)-3-(2-ethynylthiazol-4-yl)urea], where the note is “Homo sapiens, NCI-H82, 72 h”, the EC50 is at most 200 nM.

`C#Cc1nc(NC(=O)N[C@@H](CO)c2ccc(C3CCCCC3)cc2)cs1` [Compound A182, (R)-1-(1-(4-Cyclohexylphenyl)-2-hydroxyethyl)-3-(2-ethynylthiazol-4-yl)urea]: the EC50 (Homo sapiens, NCI-H82, 72 h) is at most 200 nM. Regarding `C#Cc1nc(NC(=O)N[C@@H](CO)c2ccc(C3=CCCCC3)cc2)cs1` [Compound A183, (R)-1-(2-Ethynylthiazol-4-yl)-3-(2-hydroxy-1-(2′,3′,4′,5′-tetrahydro-[1,1′-biphenyl]-4-yl)ethyl)urea], where the note is “Homo sapiens, NCI-H82, 72 h”, the EC50 is at most 200 nM. Turning to `C#Cc1nc(NC(=O)N[C@@H](CO)c2ccc(C3CCN(C)CC3)cc2)cs1` [Compound A184, (R)-1-(2-Ethynylthiazol-4-yl)-3-(2-hydroxy-1-(4-(1-methylpiperidin-4-yl)phenyl)-ethyl)urea], where the note is “Homo sapiens, NCI-H82, 72 h”, the EC50 lay within 200 to 1000 nM. Still for that read-out and setting: for `C#Cc1nc(NC(=O)N[C@@H](CO)c2ccc(C3=CCN(C)CC3)cc2)cs1` [Compound A185, (R)-1-(2-Ethynylthiazol-4-yl)-3-(2-hydroxy-1-(4-(1-methyl-1,2,3,6-tetrahydro-pyridin-4-yl)phenyl)ethyl)urea] the value was 200 to 1000 nM; for `C#Cc1nc(NC(=O)N[C@@H](CO)c2ccc(-c3cccc(S(C)(=O)=O)c3)cc2)cs1` [Compound A186, (R)-1-(2-Ethynylthiazol-4-yl)-3-(2-hydroxy-1-(3′-(methylsulfonyl)-[1,1′-biphenyl]-4-yl)ethyl)urea], at most 200 nM.

With `C#Cc1nc(NC(=O)N[C@@H](CO)c2ccc(-c3cccc(C4(C#N)CC4)c3)cc2)cs1` [Compound A187, (R)-1-(1-(3′-(1-Cyanocyclopropyl)-[1,1′-biphenyl]-4-yl)-2-hydroxyethyl)-3-(2-ethynylthiazol-4-yl)urea], the EC50 (Homo sapiens, NCI-H82, 72 h) is at most 200 nM. Same read-out and setting: for `C#Cc1nc(NC(=O)N[C@@H](CO)c2ccc(-c3cccc(C4CC4(F)F)c3)cc2)cs1` (stereo partly drawn) [Compound A188, 1-((1R)-1-(3′-(2,2-Difluorocyclopropyl)-[1,1′-biphenyl]-4-yl)-2-hydroxyethyl)-3-(2-ethynylthiazol-4-yl)urea] the value was at most 200 nM; for `C#Cc1nc(NC(=O)N[C@@H](CO)c2ccc(-c3cccc(C4(O)CCC4)c3)cc2)cs1` [Compound A189, (R)-1-(2-Ethynylthiazol-4-yl)-3-(2-hydroxy-1-(3′-(1-hydroxycyclobutyl)-[1,1′-biphenyl]-4-yl)ethyl)urea], at most 200 nM; for `C#Cc1nc(NC(=O)N[C@@H](CO)c2ccc(-c3cccc(N4CCC4)c3)cc2)cs1` [Compound A190, (R)-1-(1-(3′-(Azetidin-1-yl)-[1,1′-biphenyl]-4-yl)-2-hydroxyethyl)-3-(2-ethynyl-thiazol-4-yl)urea], at most 200 nM. Consider `C#Cc1nc(NC(=O)N[C@@H](CO)c2ccc(-c3cccc(N4CC(F)(F)C4)c3)cc2)cs1` [Compound A191, (R)-1-(1-(3′-(3,3-Difluoroazetidin-1-yl)-[1,1′-biphenyl]-4-yl)-2-hydroxyethyl)-3-(2-ethynylthiazol-4-yl)urea], for which the EC50 (Homo sapiens, NCI-H82, 72 h) was at most 200 nM. On the same count and under the same terms, for `C#Cc1nc(NC(=O)N[C@@H](CO)c2ccc(C3CCCN(C)C3)cc2)cs1` (stereo partly drawn) [Compound A192, 1-(2-Ethynylthiazol-4-yl)-3-((1R)-2-hydroxy-1-(4-(1-methylpiperidin-3-yl)-phenyl)ethyl)urea] the value was 200 to 1000 nM; for `C#Cc1nc(NC(=O)N[C@@H](CO)c2ccc(C3=CCCN(C)C3)cc2)cs1` [Compound A193, (R)-1-(2-Ethynylthiazol-4-yl)-3-(2-hydroxy-1-(4-(1-methyl-1,2,5,6-tetrahydro-pyridin-3-yl)phenyl)ethyl)urea], 200 to 1000 nM; for `C#Cc1nc(NC(=O)N[C@@H](CO)c2ccc(C3CCCN(C(C)=O)C3)cc2)cs1` (stereo partly drawn) [Compound A194, 1-((1R)-1-(4-(1-Acetylpiperidin-3-yl)phenyl)-2-hydroxyethyl)-3-(2-ethynyl-thiazol-4-yl)urea], 200 to 1000 nM. On to `C#Cc1nc(NC(=O)N[C@@H](CO)c2ccc(N3CCCCC3)cc2)cs1` [Compound A195, (R)-1-(2-Ethynylthiazol-4-yl)-3-(2-hydroxy-1-(4-(piperidin-1-yl)phenyl)ethyl)-urea], for which the EC50 (Homo sapiens, NCI-H82, 72 h) was at most 200 nM. On the same count and under the same terms, next, `C#Cc1nc(NC(=O)N[C@@H](CC#N)c2ccc(-c3cccc4ncsc34)cc2)cs1` [Compound A196, (S)-1-(1-(4-(Benzo[d]thiazol-7-yl)phenyl)-2-cyanoethyl)-3-(2-ethynylthiazol-4-yl)urea]: at most 200 nM. Take `C#Cc1nc(NC(=O)N[C@@H](CS(C)(=O)=O)c2ccc(-c3cccc4ncsc34)cc2)cs1` [Compound A197, (R)-1-(1-(4-(Benzo[d]thiazol-7-yl)phenyl)-2-(methylsulfonyl)ethyl)-3-(2-ethynyl-thiazol-4-yl)urea]: the EC50 (Homo sapiens, NCI-H82, 72 h) is at most 200 nM. On to `C#Cc1nc(NC(=O)N[C@@H](CS(N)(=O)=O)c2ccc(-c3cccc4ncsc34)cc2)cs1` [Compound A198, (R)-2-(4-(Benzo[d]thiazol-7-yl)phenyl)-2-(3-(2-ethynylthiazol-4-yl)ureido)-ethane-1-sulfonamide], for which the EC50 (Homo sapiens, NCI-H82, 72 h) is at most 200 nM. `C#Cc1nc(NC(=O)N[C@@H](CS(=O)(=O)NC)c2ccc(-c3cccc4ncsc34)cc2)cs1` [Compound A199, (R)-2-(4-(Benzo[d]thiazol-7-yl)phenyl)-2-(3-(2-ethynylthiazol-4-yl)ureido)-N-methylethane-1-sulfonamide]: where the note is “Homo sapiens, NCI-H82, 72 h”, the EC50 is at most 200 nM. On the same count and under the same terms, next, `C#Cc1nc(NC(=O)N[C@@H](COC)c2ccc(-c3cccc4ncsc34)cc2)cs1` [Compound A200, (R)-1-(1-(4-(Benzo[d]thiazol-7-yl)phenyl)-2-methoxyethyl)-3-(2-ethynylthiazol-4-yl)urea]: at most 200 nM; `C#Cc1nc(NC(=O)N[C@@H](COC(C)=O)c2ccc(-c3cccc4ncsc34)cc2)cs1` [Compound A201, (R)-2-(4-(Benzo[d]thiazol-7-yl)phenyl)-2-(3-(2-ethynylthiazol-4-yl)ureido)ethyl acetate]: at most 200 nM.
